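Compound exposure: 48 hours, 5 concentrations, 96-well plates. TGI is the concentration that stops growth completely.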
Legend:
Assay in all cases: NCI-60 cell line screen, 48 h
786-0 renal = system: 786-0 renal
A498 renal = system: A498 renal
A549 NSCLC = system: A549 NSCLC
ACHN renal = system: ACHN renal
CAKI-1 renal = system: CAKI-1 renal
CCRF-CEM leukemia = system: CCRF-CEM leukemia
COLO 205 colon = system: COLO 205 colon
DU-145 prostate = system: DU-145 prostate
EKVX NSCLC = system: EKVX NSCLC
HCC-2998 colon = system: HCC-2998 colon
HCT-116 colon = system: HCT-116 colon
HCT-15 colon = system: HCT-15 colon
HL-60(TB) leukemia = system: HL-60(TB) leukemia
HOP-62 NSCLC = system: HOP-62 NSCLC
HOP-92 NSCLC = system: HOP-92 NSCLC
HS 578T breast = system: HS 578T breast
HT29 colon = system: HT29 colon
IGROV1 ovarian = system: IGROV1 ovarian
K-562 leukemia = system: K-562 leukemia
KM12 colon = system: KM12 colon
LOX IMVI melanoma = system: LOX IMVI melanoma
M14 melanoma = system: M14 melanoma
MALME-3M melanoma = system: MALME-3M melanoma
MCF7 breast = system: MCF7 breast
MDA-MB-231 breast = system: MDA-MB-231 breast
MDA-MB-435 = system: MDA-MB-435
MDA-N = system: MDA-N
MOLT-4 leukemia = system: MOLT-4 leukemia
NCI-H226 lung = system: NCI-H226 lung
NCI-H23 lung = system: NCI-H23 lung
NCI-H460 lung = system: NCI-H460 lung
NCI-H522 lung = system: NCI-H522 lung
NCI/ADR-RES ovarian = system: NCI/ADR-RES ovarian
OVCAR-3 ovarian = system: OVCAR-3 ovarian
OVCAR-4 ovarian = system: OVCAR-4 ovarian
OVCAR-5 ovarian = system: OVCAR-5 ovarian
OVCAR-8 ovarian = system: OVCAR-8 ovarian
PC-3 prostate = system: PC-3 prostate
RPMI-8226 leukemia = system: RPMI-8226 leukemia
RXF 393 renal = system: RXF 393 renal
SF-268 CNS = system: SF-268 CNS
SF-295 CNS = system: SF-295 CNS
SF-539 CNS = system: SF-539 CNS
SK-MEL-2 melanoma = system: SK-MEL-2 melanoma
SK-MEL-28 melanoma = system: SK-MEL-28 melanoma
SK-MEL-5 melanoma = system: SK-MEL-5 melanoma
SK-OV-3 ovarian = system: SK-OV-3 ovarian
SN12C renal = system: SN12C renal
SNB-19 CNS = system: SNB-19 CNS
SNB-75 CNS = system: SNB-75 CNS
SR leukemia = system: SR leukemia
SW-620 colon = system: SW-620 colon
TK-10 renal = system: TK-10 renal
U251 CNS = system: U251 CNS
UACC-257 melanoma = system: UACC-257 melanoma
UACC-62 melanoma = system: UACC-62 melanoma

Measured: TGI

CCOC(CNc1nn2c(C)nnc2s1)OCC
> 100 µM: 786-0 renal | A498 renal | A549 NSCLC | ACHN renal | CAKI-1 renal | CCRF-CEM leukemia | COLO 205 colon | DU-145 prostate | EKVX NSCLC | HCC-2998 colon | HCT-116 colon | HCT-15 colon | HL-60(TB) leukemia | HOP-62 NSCLC | HOP-92 NSCLC | HS 578T breast | HT29 colon | IGROV1 ovarian | K-562 leukemia | KM12 colon | LOX IMVI melanoma | M14 melanoma | MALME-3M melanoma | MCF7 breast | MDA-MB-231 breast | MDA-MB-435 | MDA-N | MOLT-4 leukemia | NCI-H226 lung | NCI-H23 lung | NCI-H460 lung | NCI-H522 lung | NCI/ADR-RES ovarian | OVCAR-3 ovarian | OVCAR-4 ovarian | OVCAR-5 ovarian | OVCAR-8 ovarian | PC-3 prostate | RPMI-8226 leukemia | RXF 393 renal | SF-268 CNS | SF-295 CNS | SF-539 CNS | SK-MEL-2 melanoma | SK-MEL-28 melanoma | SK-MEL-5 melanoma | SK-OV-3 ovarian | SN12C renal | SNB-19 CNS | SNB-75 CNS | SR leukemia | SW-620 colon | TK-10 renal | U251 CNS | UACC-257 melanoma | UACC-62 melanoma

Reference: PubChem BioAssay (NCI)
